Data published in the supplement of paper PMC9265050, “Inhibition of RNA Binding in SND1 Increases the Levels of miR-1-3p and Sensitizes Cancer Cells to Navitoclax” (Cancers, 2022).

System: SW480
Experiment: drug sensitivity score (DSS, integrated dose-response area); higher = more sensitive (stronger viability reduction); extreme values may be limits of the assay
Procedure, shortened: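 SW480 cells stably carrying doxycycline-inducible control or SND1-targeting shRNA were induced with 0.1 µg/mL doxycycline for 7 days. They were then plated at 1000 cells per well in 384-well plates holding 525 commercially available small-molecule inhibitors at five concentrations. Viability was read with CellTiter-Glo after 72 h. The drug sensitivity score integrates the area under a fitted non-linear dose–response model.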

[1] = shRNA: SND1 shRNA1 (SND1 silenced)
[2] = shRNA: SND1 shRNA2 (SND1 silenced)
[3] = shRNA: control shRNA (non-targeting)

## CCCOc1ccn2c(C(C)=O)cc(-c3ccccc3S(C)(=O)=O)c2c1 [GSK2801]
[1]
  drug sensitivity score: 0 DSS
[2]
  drug sensitivity score: 0 DSS
[3]
  drug sensitivity score: 0 DSS

## O=C(NOCC1CC1)c1ccc(F)c(F)c1Nc1ccc(I)cc1Cl
[1]
  drug sensitivity score: 16.4 DSS
[2]
  drug sensitivity score: 7.4 DSS
[3]
  drug sensitivity score: 10.5 DSS

## O=C(O)CC[C@H]1CC[C@@](c2cc(F)ccc2F)(S(=O)(=O)c2ccc(Cl)cc2)CC1 [MK-0752]
[1]
  drug sensitivity score: 0.7 DSS
[2]
  drug sensitivity score: 0 DSS
[3]
  drug sensitivity score: 0 DSS

## CO[C@H](C(=O)[C@@H](O)[C@@H](C)O)[C@@H]1Cc2cc3cc(O[C@H]4C[C@@H](O[C@@H]5C[C@@H](O)[C@H](O)[C@@H](C)O5)[C@H](O)[C@@H](C)O4)c(C)c(O)c3c(O)c2C(=O)[C@H]1O[C@H]1C[C@@H](O[C@@H]2C[C@@H](O)[C@@H](O[C@@H]3C[C@](C)(O)[C@H](O)[C@@H](C)O3)[C@@H](C)O2)[C@H](O)[C@@H](C)O1 [Plicamycin]
[1]
  drug sensitivity score: 1.9 DSS
[2]
  drug sensitivity score: 0 DSS
[3]
  drug sensitivity score: 3.5 DSS

## S=c1[nH]cnc2nc[nH]c12 [Mercaptopurine]
[1]
  drug sensitivity score: 9.7 DSS
[2]
  drug sensitivity score: 5.3 DSS
[3]
  drug sensitivity score: 6.3 DSS

## COc1cc2c(NC3CCN(C(C)C)CC3)nc(C3CCCCC3)nc2cc1OCCCN1CCCC1 [UNC0638]
[1]
  drug sensitivity score: 9.1 DSS
[2]
  drug sensitivity score: 6.5 DSS
[3]
  drug sensitivity score: 9.7 DSS

## Oc1ncc(N(CCCl)CCCl)c(O)n1 [Uramustine]
[1]
  drug sensitivity score: 0 DSS
[2]
  drug sensitivity score: 0.1 DSS
[3]
  drug sensitivity score: 0 DSS

## CC(=O)O[C@H]1C(=O)[C@@]2(C)[C@H]([C@H](OC(=O)c3ccccc3)[C@]3(O)C[C@H](OC(=O)[C@H](O)[C@@H](NC(=O)c4ccccc4)c4ccccc4)C(C)=C1C3(C)C)[C@]1(OC(C)=O)CO[C@@H]1C[C@@H]2O [Paclitaxel]
[1]
  drug sensitivity score: 11.5 DSS
[2]
  drug sensitivity score: 12.5 DSS
[3]
  drug sensitivity score: 14.1 DSS

## CN1CC[C@H](c2c(O)cc(O)c3c(=O)cc(-c4ccccc4Cl)oc23)[C@H](O)C1 [Alvocidib]
[1]
  drug sensitivity score: 21.9 DSS
[2]
  drug sensitivity score: 20.3 DSS
[3]
  drug sensitivity score: 20.4 DSS

## CC(=O)[C@]1(O)Cc2c(O)c3c(c(O)c2[C@@H](O[C@H]2C[C@H](N)[C@H](O)[C@H](C)O2)C1)C(=O)c1ccccc1C3=O [Idarubicin]
[1]
  drug sensitivity score: 11.6 DSS
[2]
  drug sensitivity score: 9 DSS
[3]
  drug sensitivity score: 9.4 DSS

## NC[C@@](O)(c1ccc(Cl)cc1)c1ccc(-c2cn[nH]c2)cc1
[1]
  drug sensitivity score: 8 DSS
[2]
  drug sensitivity score: 4.7 DSS
[3]
  drug sensitivity score: 10.2 DSS

## CC[C@H](CC#N)OC(=O)N[C@@H](C)c1cccc(NC(=O)Nc2ccc(-c3cnco3)c(OC)c2)c1 [AVN944]
[1]
  drug sensitivity score: 13.4 DSS
[3]
  drug sensitivity score: 12.3 DSS

## Cc1[nH]c(/C=C2\C(=O)Nc3ccccc32)c(C)c1CCC(=O)O [Orantinib]
[1]
  drug sensitivity score: 0 DSS
[2]
  drug sensitivity score: 0 DSS
[3]
  drug sensitivity score: 0.1 DSS

## Nc1cccc2c1C(=O)N(C1CCC(=O)NC1=O)C2=O (stereo not given) [Pomalidomide]
[1]
  drug sensitivity score: 0 DSS
[2]
  drug sensitivity score: 0 DSS
[3]
  drug sensitivity score: 0 DSS

## O=C(Nc1cccnc1)N1CCC(Cc2cccc(Oc3ccc(C(F)(F)F)cn3)c2)CC1 [PF-3845]
[1]
  drug sensitivity score: 0.1 DSS
[2]
  drug sensitivity score: 2.4 DSS
[3]
  drug sensitivity score: 0.3 DSS

## CN1CCC(CNc2ccc3ncc(-c4cccc(OC(F)(F)F)c4)n3n2)CC1 [SGI-1776]
[1]
  drug sensitivity score: 9.6 DSS
[2]
  drug sensitivity score: 9.5 DSS
[3]
  drug sensitivity score: 8.9 DSS

## CCN(c1cc(-c2ccc(CN3CCOCC3)cc2)cc(C(=O)NCc2c(C)cc(C)[nH]c2=O)c1C)C1CCOCC1 [Tazemetostat]
[1]
  drug sensitivity score: 3.8 DSS
[2]
  drug sensitivity score: 0.8 DSS
[3]
  drug sensitivity score: 2.2 DSS

## Cc1cc2c(C(=O)NC[C@H](C)c3ccccc3)c(O)c(O)cc2c(O)c1-c1c(C)cc2c(C(=O)NC[C@H](C)c3ccccc3)c(O)c(O)cc2c1O [Sabutoclax]
[1]
  drug sensitivity score: 14.2 DSS
[2]
  drug sensitivity score: 13.3 DSS
[3]
  drug sensitivity score: 12.7 DSS

## COc1cc(N2CCN(C)CC2)ccc1Nc1nccc(-c2cn(C)c3cnccc23)n1 [AZ191]
[1]
  drug sensitivity score: 6.8 DSS
[3]
  drug sensitivity score: 7.9 DSS

## COc1cc2c(NC3CCN(C(C)C)CC3)nc(N3CCC(F)(F)CC3)nc2cc1OCCCN1CCCC1 [UNC0642]
[1]
  drug sensitivity score: 4.7 DSS
[2]
  drug sensitivity score: 8.7 DSS
[3]
  drug sensitivity score: 8.4 DSS

## CNC(=O)c1ccc(-c2cnc3ncc(Cc4ccc5ncccc5c4)n3n2)cc1F [NVP-INC280]
[1]
  drug sensitivity score: 0 DSS
[2]
  drug sensitivity score: 5.7 DSS
[3]
  drug sensitivity score: 5.8 DSS

## N#CC[C@H](C1CCCC1)n1cc(-c2ncnc3[nH]ccc23)cn1 [Ruxolitinib]
[1]
  drug sensitivity score: 2.3 DSS
[2]
  drug sensitivity score: 5.6 DSS
[3]
  drug sensitivity score: 4.4 DSS

## Cc1c(Cn2c(C)nc3c(C(=O)O)cc(N4CCOCC4)cc32)cccc1C(F)(F)F
[1]
  drug sensitivity score: 2 DSS
[2]
  drug sensitivity score: 3.3 DSS
[3]
  drug sensitivity score: 0.8 DSS

## Cc1ccc(-c2cc(C(F)(F)F)nn2-c2ccc(S(N)(=O)=O)cc2)cc1 [Celecoxib]
[1]
  drug sensitivity score: 0 DSS
[2]
  drug sensitivity score: 0 DSS
[3]
  drug sensitivity score: 0 DSS

## CCOc1ccn(-c2ccc(F)cc2)c(=O)c1C(=O)Nc1ccc(Oc2ccnc(N)c2Cl)c(F)c1
[1]
  drug sensitivity score: 1.9 DSS
[2]
  drug sensitivity score: 8.3 DSS
[3]
  drug sensitivity score: 6.5 DSS

## CC(C)[C@@H](CS(=O)(=O)C(C)C)N1C(=O)[C@@](C)(CC(=O)O)C[C@H](c2cccc(Cl)c2)[C@H]1c1ccc(Cl)cc1 [AMG-232]
[1]
  drug sensitivity score: 0 DSS
[2]
  drug sensitivity score: 0 DSS
[3]
  drug sensitivity score: 0 DSS

## O=C1NC(=O)[C@@H](c2cn3c4c(cccc24)CCC3)[C@@H]1c1c[nH]c2ccccc12 [Tivantinib]
[1]
  drug sensitivity score: 6.4 DSS
[2]
  drug sensitivity score: 4 DSS
[3]
  drug sensitivity score: 5.4 DSS

## CN1CCN(CCOc2cc(OC3CCOCC3)c3c(Nc4c(Cl)ccc5c4OCO5)ncnc3c2)CC1 [Saracatinib]
[1]
  drug sensitivity score: 1.4 DSS
[2]
  drug sensitivity score: 1.3 DSS
[3]
  drug sensitivity score: 1.5 DSS

## COc1ccc(-c2ccc3c(N4CCOC[C@@H]4C)nc(N4CCOC[C@@H]4C)nc3n2)cc1CO [AZD8055]
[1]
  drug sensitivity score: 20.6 DSS
[2]
  drug sensitivity score: 19.2 DSS
[3]
  drug sensitivity score: 14.9 DSS

## C=CCNC1=C2C[C@@H](C)C[C@H](OC)[C@H](O)[C@@H](C)/C=C(\C)[C@H](OC(N)=O)[C@@H](OC)/C=C\C=C(/C)C(=O)NC(=CC1=O)C2=O [Tanespimycin]
[1]
  drug sensitivity score: 10.5 DSS
[2]
  drug sensitivity score: 11.7 DSS
[3]
  drug sensitivity score: 16.1 DSS

## Cc1cc(Nc2nc(N[C@@H](C)c3ncc(F)cn3)ncc2Cl)[nH]n1 [AZD1480]
[1]
  drug sensitivity score: 0.6 DSS
[2]
  drug sensitivity score: 0 DSS
[3]
  drug sensitivity score: 1.1 DSS

## Cc1ccc(C(=O)N(CCCN)[C@@H](c2oc3cc(Cl)ccc3c(=O)c2Cc2ccccc2)C(C)C)cc1
[1]
  drug sensitivity score: 2.9 DSS
[2]
  drug sensitivity score: 3.7 DSS
[3]
  drug sensitivity score: 5.5 DSS

## CN(C)C/C=C/C(=O)Nc1cc2c(Nc3ccc(F)c(Cl)c3)ncnc2cc1O[C@H]1CCOC1 [Afatinib]
[1]
  drug sensitivity score: 2.1 DSS
[2]
  drug sensitivity score: 1.8 DSS
[3]
  drug sensitivity score: 1.2 DSS

## C=CC(=O)Nc1cccc(Nc2nc(Nc3ccc(OCCOC)cc3)ncc2F)c1 [Spebrutinib]
[1]
  drug sensitivity score: 2.5 DSS
[2]
  drug sensitivity score: 0 DSS
[3]
  drug sensitivity score: 4.4 DSS

## C/C=C1\NC(=O)[C@H]2CSSCC/C=C/[C@H](CC(=O)N[C@H](C(C)C)C(=O)N2)OC(=O)[C@H](C(C)C)NC1=O [Romidepsin]
[1]
  drug sensitivity score: 25.7 DSS
[2]
  drug sensitivity score: 25.1 DSS
[3]
  drug sensitivity score: 27.4 DSS

## C#Cc1cccc(Nc2ncnc3cc(OC)c(OCCCCCCC(=O)NO)cc23)c1 [CUDC-101]
[1]
  drug sensitivity score: 11.3 DSS
[2]
  drug sensitivity score: 12.6 DSS
[3]
  drug sensitivity score: 10.7 DSS

## O=C(O)c1ccc(CN2CCC(CN[C@@H]3C[C@H]3c3ccccc3)CC2)cc1
[1]
  drug sensitivity score: 0 DSS
[2]
  drug sensitivity score: 8 DSS
[3]
  drug sensitivity score: 1.2 DSS

## Cn1cc(-c2ccc3nnc(Sc4ccc5ncccc5c4)n3n2)cn1 [SGX-523]
[1]
  drug sensitivity score: 0 DSS
[3]
  drug sensitivity score: 0 DSS

## O=C(O)c1ccc(O)c2ncccc12 [IOX-1]
[1]
  drug sensitivity score: 1.7 DSS
[2]
  drug sensitivity score: 1.1 DSS
[3]
  drug sensitivity score: 0.7 DSS

## COc1ccc(S(=O)(=O)Nc2cccnc2Nc2ccc(O)cc2)cc1 [ABT-751]
[1]
  drug sensitivity score: 9 DSS
[2]
  drug sensitivity score: 9.1 DSS
[3]
  drug sensitivity score: 9.5 DSS

## Nc1nc(F)nc2c1ncn2[C@@H]1O[C@H](CO)[C@@H](O)[C@@H]1O [Fludarabine]
[1]
  drug sensitivity score: 1.8 DSS
[2]
  drug sensitivity score: 3.3 DSS
[3]
  drug sensitivity score: 4.7 DSS

## O=C(O)CCCCC(CCSCc1ccccc1)SCc1ccccc1 (stereo not given) [CPI-613]
[1]
  drug sensitivity score: 0 DSS
[3]
  drug sensitivity score: 0 DSS

## CCN1CCN(Cc2ccc(-c3cc4c(N[C@H](C)c5ccccc5)ncnc4[nH]3)cc2)CC1 [NVP-AEE788]
[1]
  drug sensitivity score: 1.5 DSS
[2]
  drug sensitivity score: 1.3 DSS
[3]
  drug sensitivity score: 2.8 DSS

## COc1ccc(COc2cc3oc(=O)c4cc(C(C)O)ccc4c3cc2OC)cc1 (stereo not given) [Palomid-529]
[1]
  drug sensitivity score: 0 DSS
[2]
  drug sensitivity score: 0 DSS
[3]
  drug sensitivity score: 1.7 DSS

## CCc1cncnc1N1CCN(Cc2nc3ccc(C(F)(F)F)cc3[nH]2)CC1
[1]
  drug sensitivity score: 0.3 DSS
[2]
  drug sensitivity score: 2.9 DSS
[3]
  drug sensitivity score: 2 DSS

## CS(=O)(=O)CCNCc1ccc(-c2ccc3ncnc(Nc4ccc(OCc5cccc(F)c5)c(Cl)c4)c3c2)o1 [Lapatinib]
[1]
  drug sensitivity score: 0 DSS
[2]
  drug sensitivity score: 0 DSS
[3]
  drug sensitivity score: 0.9 DSS

## CCN1CCN(c2ccc(Nc3cc(N(C)C(=O)Nc4c(Cl)c(OC)cc(OC)c4Cl)ncn3)cc2)CC1 [NVP-BGJ398]
[1]
  drug sensitivity score: 0 DSS
[2]
  drug sensitivity score: 0 DSS
[3]
  drug sensitivity score: 0 DSS

## CCCCC(=O)OCC(=O)[C@]1(O)Cc2c(O)c3c(c(O)c2[C@@H](O[C@H]2C[C@H](NC(=O)C(F)(F)F)[C@H](O)[C@H](C)O2)C1)C(=O)c1c(OC)cccc1C3=O [Valrubicin]
[1]
  drug sensitivity score: 8.7 DSS
[2]
  drug sensitivity score: 7.8 DSS
[3]
  drug sensitivity score: 8.2 DSS
